Eight molecules from ChEMBL document CHEMBL5356942, “MEK inhibitors in cancer treatment: structural insights, regulation, recent advances and future perspectives” (RSC Med Chem, 2023) can be followed below.

In series [1] the test system is MCF7. Put plainly: Cytotoxicity against human MCF7 cells assessed as reduction in cell viability incubated for 24 hrs by MTT assay. It is filed as functional, cell-based. The conditions noted are these: MCF7, 24 h. On the technique in general: Tetrazolium dyes change colour on reduction, which living cells bring about.
Series [2] deals with B16. The series is described as follows: Cytotoxicity against mouse B16 cells assessed as reduction in cell viability incubated for 24 hrs by MTT assay. It counts as functional, cell-based. The conditions noted are these: B16, 24 h.
Series [3] has as its system HT-29. Put plainly: Cytotoxicity against human HT-29 cells assessed as reduction in cell viability incubated for 24 hrs in dark by MTT assay. It counts as functional, cell-based. The conditions noted are these: HT-29, 24 h.
Series [4] concerns the target Mitogen-activated protein kinase 1 (Homo sapiens, UniProt P28482). Put plainly: Inhibition of ERK2 phosphorylation in human A375 cells.
Series [5] can be described thus: Inhibition of ERK phosphorylation in human A-431 cells at 1 to 10 uM incubated for 24 hrs by Western blot analysis. It is filed as cell-based. The conditions noted are these: A-431, 24 h. For orientation: In western blotting, separated proteins are transferred to a membrane and probed.
Series [6] can be described thus: Therapeutic index, ratio of CC50 for HEK293 cells to EC50 for antiviral activity against human EV71 infected in HEK293 cells. It counts as functional.
For series [7], the system named is HEK293. The series is described as follows: Cytotoxicity against HEK293 cells assessed as reduction in cell viability measured after 66 hrs by MTT assay. The conditions noted are these: Homo sapiens. It is filed as functional.
Series [8] concerns Enterovirus A71. Put plainly: Antiviral activity against human Enterovirus 71 BrCr infected in human RD cells assessed as reduction of virus induced cytopathic effect incubated for 48 hrs by MTS assay. The conditions noted are these: Enterovirus A. It counts as functional, organism-based. On the technique in general: Cytopathic effects are the visible damage that an infection or toxin causes in cultured cells.

Series [9] concerns RD. The series is described as follows: Cytotoxicity against human RD cells assessed as reduction in cell viability incubated for 72 hrs by MTT assay. It counts as functional.
Series [10] in a line: Therapeutic index, ratio of CC50 for RD cells to EC50 for antiviral activity against human EV71 infected in RD cells. It counts as functional.
Series [11] has as its system Enterovirus A71. The series is described as follows: Antiviral activity against human EV71 infected in HEK293 cells assessed as reduction in viral replication at MOI of 1 incubated for 48 hrs by luciferase assay. The conditions noted are these: Enterovirus A, HEK293, 48 h. It counts as functional, organism-based.
In series [12] the test system is Hep 3B2. Put plainly: Cytotoxicity against human Hep3B cells assessed as reduction in cell viability incubated for 48 hrs by MTT assay. It is filed as functional, cell-based.
Series [13] has as its system SMMC-7721. Put plainly: Cytotoxicity against human SMMC-7721 cells assessed as reduction in cell growth incubated for 48 hrs by MTT assay. It is filed as functional, cell-based. The conditions noted are these: SMMC-7721, 48 h.
The nature of series [14]: Cytotoxicity against human QSG7701 cells assessed as inhibition of cell growth incubated for 48 hrs by MTT assay. It is filed as functional, cell-based. The conditions noted are these: QSG7701, 48 h.
Series [15] in a line: AUC (0 to t) in ICR mouse at 3 mg/kg, po administered via gavage measured after 24 hrs by LC-MS/MS analysis. It is filed as ADME, organism-based. More on the design: time 24 hrs, dose 3 mg/kg, route po. The conditions noted are these: in vivo.
Series [16] in a line: Oral bioavailability in ICR mouse at 3 mg/kg measured after 24 hrs by LC-MS/MS analysis. It counts as ADME, organism-based. The conditions noted are these: in vivo.
Series [17] in a line: Cytotoxicity against human QSG7701 cells assessed as inhibition of cell growth incubated for 72 hrs by MTT assay. It is filed as functional, cell-based. The conditions noted are these: QSG7701, 72 h.
Series [18] concerns HeLa. Put plainly: Cytotoxicity against human HeLa cells assessed as reduction in cell viability incubated for 72 hrs by MTT assay. It counts as functional, cell-based.
The subject of series [19] is MDA-MB-231. Put plainly: Cytotoxicity against human MDA-MB-231 cells assessed as reduction in cell viability incubated for 72 hrs by MTT assay. The conditions noted are these: MDA-MB-231, 72 h. It is filed as functional, cell-based.
In series [20] the test system is SMMC-7721. Put plainly: Cytotoxicity against human SMMC-7721 cells assessed as reduction in cell viability incubated for 72 hrs by MTT assay. The conditions noted are these: SMMC-7721, 72 h. It counts as functional, cell-based.
Series [21] relates to COLO 205. Put plainly: Antiproliferative activity against human COLO 205 cells assessed as reduction in cell proliferation incubated for 24 hrs byMTS assay. It is filed as functional, cell-based. The conditions noted are these: COLO 205, 24 h.
Series [22] concerns Calu-6. The series is described as follows: Antiproliferative activity against human Calu-6 cells assessed as reduction in cell growth incubated for 24 hrs by MTT assay. The conditions noted are these: Calu-6, 24 h. It is filed as functional, cell-based.
Series [23] relates to A-375. The series is described as follows: Antiproliferative activity against human A375 cells assessed as reduction in cell growth incubated for 24 hrs by MTT assay. It is filed as functional, cell-based. The conditions noted are these: A-375, 24 h.
Series [24] deals with A-431. The series is described as follows: Antiproliferative activity against human A-431 cells assessed as reduction in cell proliferation incubated for 24 hrs by MTT assay. It counts as functional, cell-based. The conditions noted are these: A-431, 24 h.
For series [25], the system named is HT-29. Put plainly: Antiproliferative activity against human HT-29 cells assessed as reduction in cell growth incubated for 24 hrs by MTT assay. It counts as functional, cell-based. The conditions noted are these: HT-29, 24 h.

Chain of Mitogen-activated protein kinase 1 (P28482 whole entry): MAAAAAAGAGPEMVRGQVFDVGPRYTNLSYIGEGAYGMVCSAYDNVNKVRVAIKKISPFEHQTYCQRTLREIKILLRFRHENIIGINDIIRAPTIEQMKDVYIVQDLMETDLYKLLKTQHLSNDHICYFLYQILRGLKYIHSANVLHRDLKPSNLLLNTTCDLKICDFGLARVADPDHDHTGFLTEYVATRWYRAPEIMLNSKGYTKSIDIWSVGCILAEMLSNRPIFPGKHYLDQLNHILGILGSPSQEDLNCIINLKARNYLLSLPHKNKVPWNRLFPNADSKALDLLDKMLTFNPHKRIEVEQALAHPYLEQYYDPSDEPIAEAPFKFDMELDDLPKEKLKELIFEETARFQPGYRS

Take `N#Cc1c(-c2ccccc2Br)c(N2CCOCC2)n(-c2ccc(Cl)cc2Cl)c1N`: the IC50 was 1350 nM in [1], 4610 nM in series [2] and 1470 nM in series [3].
For the molecule `CC(=O)COC[C@H](O)CONC(=O)c1ccc(F)c(F)c1Nc1ccc(F)cc1F`, the IC50 in series [4] is 18 nM.
With `Cn1c(=O)c(F)c(Nc2ccc(I)cc2F)c2c(=O)n(C[C@@H](O)CO)cnc21` [TAK-733], in series [5], the EC50 was 0.19 nM.
As for `CCc1c(Cc2ccc(F)cc2)c(=O)oc2cc(OC(=O)N(C)C)ccc12`, the “Ratio CC50/EC50” value in series [6] is 3.37; in series [10], 7.29. In addition, the CC50 stood at 65300 nM in series [7] and 72900 nM in [9]. Besides, the EC50 in series [8] was 10000 nM; in [11], 19400 nM.
Turning to `CCOc1ccc2c(c1)c1c(n2CCN2CCNCC2)-c2cc(C(C)C)ccc2[C@@]2(C)CCC[C@@](C)(C(=O)OC)C12` (stereo not given in full), the IC50 in [12] worked out at 730 nM; in series [13], 1390 nM; in series [14], 12500 nM.
With `Cc1cc(I)ccc1Nc1c(C(=O)NOCCO)cc2ocnc2c1F`, the AUCt in series [15] is 337 ng·h/mL. The same molecule displayed a bioavailability in series [16] of 28%.
With `CC(=O)NNC(=O)[C@]12CC[C@@H](C)[C@H](C)C1C1=CCC3[C@@]4(C)Cc5cc6cc(Cl)ccc6cc5C(C)(C)C4CC[C@@]3(C)[C@]1(C)CC2` (stereo not given in full), the IC50 turned out to be 10800 nM in series [17], 80 nM in series [18], 120 nM in series [19] and 340 nM in series [20].
As for `O=C(NOCCO)c1cc2ocnc2c(F)c1Nc1ccc(F)cc1F`, the half-maximal inhibitory concentration (IC50) in series [21] was 5.7 nM; in series [22], 169 nM; in [23] it was 4.3 nM; in [24], above 3000 nM; in series [25], 2.9 nM.

As a reminder, the IC50 is the concentration that inhibits the measured activity by half. Usually EC50 stands for the midpoint of the concentration-response curve. One may read the CC50 as the concentration giving 50% cytotoxicity. One may read the bioavailability as dose-corrected exposure relative to a reference, in per cent. A higher bioavailability goes with much systemic uptake.
